In patent US8722868B2, “Glycosyltransferase, novel glycosyltransferase gene, and novel sugar donor compound” (National University Corporation Tokyo University of …, priority 2009, dated 2014):

Key:
[1] = target: T1, crude enzyme obtained from pink petals of a carnation (variety: "Beam Cherry") (glycosyltransferase) (Dianthus caryophyllus, UniProt E3W9M2); assay: Relative activity of crude carnation petal enzyme on each sugar donor (glycosyl transfer to cyanidin 3-glucoside, HPLC); assay type: biochemical; settings: crude enzyme 61 μg, cyanidin β-glucoside 200 μM, sugar donor 500 μM, citric acid buffer pH 5.6, 30° C., 15 minutes, HPLC area of cyanidin 3,5-O-β diglucoside
T1 construct: Thus, a crude enzyme liquid was obtained; from tissue; host or cells: pink petals of carnation, variety Beam Cherry (ammonium sulfate precipitate, desalted)
T1 sequence (E3W9M2 31-502): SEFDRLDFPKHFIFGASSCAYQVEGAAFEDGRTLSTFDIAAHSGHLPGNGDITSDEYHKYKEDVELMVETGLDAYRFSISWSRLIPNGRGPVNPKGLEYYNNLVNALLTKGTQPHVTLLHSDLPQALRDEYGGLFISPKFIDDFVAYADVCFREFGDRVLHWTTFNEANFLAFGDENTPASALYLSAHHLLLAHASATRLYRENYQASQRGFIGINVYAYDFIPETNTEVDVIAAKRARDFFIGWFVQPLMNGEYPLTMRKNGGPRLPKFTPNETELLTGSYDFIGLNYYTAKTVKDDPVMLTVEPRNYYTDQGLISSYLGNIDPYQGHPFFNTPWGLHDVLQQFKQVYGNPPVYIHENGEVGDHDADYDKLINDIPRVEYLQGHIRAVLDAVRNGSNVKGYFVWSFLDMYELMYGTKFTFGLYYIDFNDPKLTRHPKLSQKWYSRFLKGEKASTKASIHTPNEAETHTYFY
Procedure: An enzyme reaction was carried out at 30° C. for 15 minutes in a reaction solution obtained by adding a citric acid buffer (pH 5.6) to a crude enzyme obtained from pink petals of a carnation (variety: “Beam Cherry”) (61 μg), cyanidin β-glucoside (200 μM), and a sugar donor (1-O-β-vanillyl glucose extracted from a carnation or any of synthesized 1-O-vanillyl glucose (in the α or β form), 1-O-isovanillyl glucose (in the α or β form), and 1-O-galloyl glucose (in the α or β form)) (500 μM) to a final volume of 30 μl. The reaction was terminated by adding a 20% phosphoric acid aqueous solution to the reaction liquid so as to result in a final phosphoric acid concentration of 1%, followed by centrifugation. The obtained supernatant was subjected to separation using an HPLC (Chromolith Speed ROD; 4.6×50 mm; Merck) with a linear gradient (5 minutes) of 18% to 28% liquid B containing eluent A (a 1.5% phosphoric acid aqueous solution) and eluent B (a 90% methanol aqueous solution) (flow rate: 3.0 ml/min; 520 nm), followed by analysis. The relative activity of the enzyme on each sugar donor was calculated based on the HPLC chromatogram area of a reaction product (cyanidin 3,5-O-β diglucoside) at a wavelength of 505 nm.

[2] = target: T2, enzyme purified from pink petals of a carnation (variety: "Beam Cherry") (glycosyltransferase) (Dianthus caryophyllus, UniProt E3W9M2); assay: Relative activity of glycosyltransferase purified from carnation on each sugar donor (HPLC); assay type: biochemical; settings: purified enzyme 135 ng, cyanidin 3-glucoside 200 μM, sugar donor 500 μM, citric acid buffer pH 5.6, 30° C., 15 minutes; HPLC area of cyanidin 3,5-O-β-diglucoside
T2 construct: the enzyme comprising 502 amino acid residues was translated, followed by amino acid removal via processing; from tissue; host or cells: petals of carnation, variety Beam Cherry
T2 sequence (E3W9M2 31-502): T1 sequence (E3W9M2 31-502)
Procedure: An enzyme reaction was carried out at 30° C. for 15 minutes using an enzyme (135 ng) purified from pink petals of a carnation (variety: “Beam Cherry”) by the method described in Example 2 ((1) and (2)), cyanidin 3-glucoside (200 μM), and a sugar donor (1-O-β-D-vanillyl glucose or any of 1-O-β-D-p-coumaryl glucose, 1-O-β-D-caffeyl glucose, 1-O-β-D-feruloyl glucose, and 1-O-β-D-sinapoyl glucose that had been enzymatically synthesized according to the method described in Matsuba Y et al., Plant Biotechnology vol. 25, No. 4 (2008) pp. 369-375) (500 μM) in a reaction solution adjusted to 30 μl with the addition of a citric acid buffer (pH 5.6). A 20% phosphoric acid aqueous solution was added to the reaction liquid so as to result in a final phosphoric acid concentration of 1%. Thus, the reaction was terminated, followed by centrifugation. The resulting supernatant was subjected to separation using a HPLC column (Chromolith SpeedROD, 4.6×50 mm, Merck), eluent A (a 1.5% phosphoric acid aqueous solution), and eluent B (a 90% methanol aqueous solution) with a linear gradient of 18% to 28% liquid B (flow rate: 3.0 ml/min, 520 nm) (5 minutes), followed by analysis. The relative activity of the enzyme on each sugar donor was determined by calculating the area of the reaction product (cyanidin 3,5-O-β-diglucoside) on an HPLC chromatogram at a wavelength of 505 nm.

For COc1cc(C(=O)OC2OC(CO)C(O)C(O)C2O)ccc1O (stereo not drawn), the “Relative activity of an enzyme on a sugar donor (when synthetic 1-O-β-vanillyl glucose is set as 100)” value (from here on “Relative activity of an enzyme”) [1] was 100, the “Relative activity of an enzyme” value ([1]; listed as 1-O-β-vanillyl glucose (from carnation)) was 97.9 and the “Relative activity of an enzyme” value [2] was 100.
